Several values for one entry are separate records, joined by “and”; a condition that tells them apart may be missing. Equal values may be shown once. Read-outs that look alike come from different tables or passages of the source.
Tests used:
hPDE2A = target: T1, hPDE2A (Homo sapiens, UniProt O00408); assay: In vitro assay PDE2A (SPA, 3H-cGMP); assay type: biochemical; conditions: for Emax: read-out: hPDE2A Emax
T1 construct: made in house; host or cells: Sf9 insect cells (baculovirus)
Procedure: Human recombinant PDE2A (hPDE2A) was expressed in Sf9 cells using a recombinant rPDE10A baculovirus construct. Cells were harvested after 48 h of infection and the hPDE2A protein was purified by metal chelate chromatography on Ni-sepharose 6FF. Tested compounds were dissolved and diluted in 100% DMSO to a concentration 100 fold of the final concentration in the assay. Compound dilutions (0.4 μl) were added in 384 well plates to 20 μl of incubation buffer (50 mM Tris pH 7.8, 8.3 mM MgCl2, 1.7 mM EGTA). 10 μl of hPDE2A enzyme in incubation buffer was added and the reaction was started by addition of 10 μl substrate to a final concentration of 10 μM cGMP and 0.01 μCi ^3H-cGMP. The reaction was incubated for 45 minutes at room temperature. […] After sedimentation of the beads during 30 minutes the radioactivity was measured in a Perkin Elmer Topcount scintillation counter and results were expressed as cpm. For blanc values the enzyme was omitted from the reaction and replaced by incubation buffer. Control values were obtained by addition of a final concentration of 1% DMSO instead of compound.

hPDE3B = assay: In vitro assay PDE3 (SPA, 3H-cAMP); assay type: biochemical, human; design: hPDE3B Emax: unit not given here; conditions: for hPDE3B pIC50: 0.4 μM cAMP substrate
hPDE10A2 = hPDE10A2 (Homo sapiens, UniProt Q9Y233); assay: biochemical; conditions: for IC50: 60 nM cAMP substrate, read-out: hPDE10A2 pIC50 (converted); for Emax: read-out: hPDE10A2 Emax
Procedure: Rat recombinant PDE10A (rPDE10A2) was expressed in Sf9 cells using a recombinant rPDE10A baculovirus construct. Cells were harvested after 48 h of infection and the rPDE10A protein was purified by metal chelate chromatography on Ni-sepharose 6FF. Tested compounds were dissolved and diluted in 100% DMSO to a concentration 100 fold of the final concentration in the assay. Human recombinant PDE10A […] was expressed in Sf9 cells using a recombinant hPDE10A baculovirus that was made and amplified in house. Cells were harvested after 72 h of infection and the hPDE10A protein was purified by metal chelate chromatography on Ni-sepharose. Compound dilutions (0.4 μl) were added in 384 well plates to 20 μl of incubation buffer (50 mM Tris pH 7.8, 8.3 mM MgCl2, 1.7 mM EGTA). […] of rPDE10A or hPDE10A enzyme in incubation buffer was added and the reaction was started by addition of 10 μl substrate to a final concentration of 60 nM cAMP and 0.008 μCi ^3H-cAMP. The reaction was incubated for 60 minutes at room temperature. […] After sedimentation of the beads during 30 minutes the radioactivity was measured in a Perkin Elmer Topcount scintillation counter and results were expressed as cpm. For blanc values the enzyme was omitted from the reaction and replaced by incubation buffer. Control values were obtained by addition of a final concentration of 1% DMSO instead of compound.

PDE2A = target: T2, PDE2A (Rattus norvegicus, UniProt Q01062); assay: PDE2 occupancy by ex-vivo autoradiography with [3H]B-17a; assay type: in vivo; conditions: for receptor occupancy at 10 mg/kg / ED50: rat; for ED50: read-out: PDE occupancy ED50, route PO (oral), male Wistar rats, dose producing 50% occupancy
T2 construct: from tissue; host or cells: rat brain striatal sections (ex vivo)
T2 sequence (Q01062 1-928): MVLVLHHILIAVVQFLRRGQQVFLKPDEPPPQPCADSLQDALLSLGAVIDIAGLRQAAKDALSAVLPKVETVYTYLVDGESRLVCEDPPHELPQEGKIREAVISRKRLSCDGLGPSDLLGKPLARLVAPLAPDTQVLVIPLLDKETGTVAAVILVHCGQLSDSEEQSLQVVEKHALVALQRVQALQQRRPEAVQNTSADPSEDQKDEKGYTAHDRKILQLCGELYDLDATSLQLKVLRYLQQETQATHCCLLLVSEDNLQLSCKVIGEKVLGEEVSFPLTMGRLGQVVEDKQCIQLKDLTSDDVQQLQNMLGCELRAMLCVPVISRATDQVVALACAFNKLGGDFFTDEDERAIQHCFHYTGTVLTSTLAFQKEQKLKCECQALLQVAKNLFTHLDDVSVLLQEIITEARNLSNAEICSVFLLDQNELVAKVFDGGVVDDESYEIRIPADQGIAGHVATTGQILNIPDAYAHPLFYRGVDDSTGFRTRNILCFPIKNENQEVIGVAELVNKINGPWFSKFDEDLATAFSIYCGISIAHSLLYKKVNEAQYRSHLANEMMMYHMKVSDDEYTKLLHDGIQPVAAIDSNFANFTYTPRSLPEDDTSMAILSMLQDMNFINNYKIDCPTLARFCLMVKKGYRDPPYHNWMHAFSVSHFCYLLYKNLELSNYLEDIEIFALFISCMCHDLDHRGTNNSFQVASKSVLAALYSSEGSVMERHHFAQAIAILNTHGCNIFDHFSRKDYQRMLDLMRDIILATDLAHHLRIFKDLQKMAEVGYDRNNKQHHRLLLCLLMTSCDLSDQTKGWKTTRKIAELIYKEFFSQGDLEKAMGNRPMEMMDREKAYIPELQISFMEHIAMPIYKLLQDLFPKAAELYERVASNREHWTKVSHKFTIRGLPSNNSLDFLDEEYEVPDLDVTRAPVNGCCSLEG
Procedure: PDE2 Occupancy by Test Compounds Methods
Brains were immediately removed from the skull and rapidly frozen in dry-ice cooled 2-methylbutane (−40° C.).
After thawing, sections were dried under a cold stream of air and incubated for one minute with 30 nM [^3H]B-17a in Tris-HCl (50 mM, pH7.4) containing 0.3% BSA. Brain sections from drug-treated and vehicle-treated animals were incubated in parallel. […] After incubation, the excess of [^3H]B-17a was washed off in ice-cold buffer 2 times 10 minutes, followed by a quick dip in distilled water. The sections were then dried under a stream of cold air.
Brain sections were loaded in a β-imager (Biospace, Paris) for 4 h and radioactivity emerging from delineated brain area was quantified using the Beta vision program (Biospace, Paris). Specific binding was determined as the difference between total binding in the striatum and non-specific binding in the cerebellum. Percentage receptor occupancy of the drug administered to the animal corresponded to 100% minus the percentage receptor labeled in the treated animal. For the determination of ED50-values, the percentage of receptor occupancy was plotted against dose and the sigmoidal log dose-effect curve of best fit was calculated by non-linear regression analysis, using the GraphPad Prism program.

[1] = 10 μM cGMP substrate, read-out: hPDE2A pIC50 (converted)
[2] = sc, read-out: PDE2 occupancy at 10 mg/kg, route SC (subcutaneous), 10 mg/kg, male Wistar rats, striatum, percentage occupancy
[3] = po, read-out: PDE2 occupancy at 10 mg/kg
[4] = route SC (subcutaneous), 10 mg/kg, male Wistar rats, striatum, percentage occupancy, read-out: PDE2 occupancy at 10 mg/kg
[5] = route PO (oral), 10 mg/kg, male Wistar rats, striatum, percentage occupancy, read-out: PDE2 occupancy at 10 mg/kg

T1 sequence (O00408 whole entry): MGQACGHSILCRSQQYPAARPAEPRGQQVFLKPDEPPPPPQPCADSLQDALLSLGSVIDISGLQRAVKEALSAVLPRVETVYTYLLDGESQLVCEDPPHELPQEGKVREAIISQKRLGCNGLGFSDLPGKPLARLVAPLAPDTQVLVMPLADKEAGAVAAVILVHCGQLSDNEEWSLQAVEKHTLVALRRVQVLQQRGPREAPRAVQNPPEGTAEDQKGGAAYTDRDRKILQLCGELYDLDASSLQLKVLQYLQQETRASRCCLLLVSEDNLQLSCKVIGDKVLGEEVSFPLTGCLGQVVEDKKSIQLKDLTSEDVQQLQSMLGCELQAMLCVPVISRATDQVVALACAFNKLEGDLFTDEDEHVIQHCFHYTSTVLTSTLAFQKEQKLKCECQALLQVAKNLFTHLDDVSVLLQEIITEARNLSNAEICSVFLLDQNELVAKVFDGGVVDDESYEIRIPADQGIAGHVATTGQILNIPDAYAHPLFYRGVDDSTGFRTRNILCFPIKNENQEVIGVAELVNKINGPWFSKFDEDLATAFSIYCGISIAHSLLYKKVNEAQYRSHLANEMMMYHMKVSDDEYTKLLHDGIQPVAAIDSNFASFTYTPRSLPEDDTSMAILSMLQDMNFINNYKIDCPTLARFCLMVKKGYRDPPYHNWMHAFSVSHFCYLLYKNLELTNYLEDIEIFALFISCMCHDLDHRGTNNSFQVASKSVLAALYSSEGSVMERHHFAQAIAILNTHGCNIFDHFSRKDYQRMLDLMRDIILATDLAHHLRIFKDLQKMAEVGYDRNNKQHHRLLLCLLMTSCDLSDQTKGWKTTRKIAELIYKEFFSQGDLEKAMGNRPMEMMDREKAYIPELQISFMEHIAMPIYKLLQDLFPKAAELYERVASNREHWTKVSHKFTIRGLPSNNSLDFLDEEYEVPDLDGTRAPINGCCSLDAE
Chain of hPDE10A2 (Q9Y233 267-1055): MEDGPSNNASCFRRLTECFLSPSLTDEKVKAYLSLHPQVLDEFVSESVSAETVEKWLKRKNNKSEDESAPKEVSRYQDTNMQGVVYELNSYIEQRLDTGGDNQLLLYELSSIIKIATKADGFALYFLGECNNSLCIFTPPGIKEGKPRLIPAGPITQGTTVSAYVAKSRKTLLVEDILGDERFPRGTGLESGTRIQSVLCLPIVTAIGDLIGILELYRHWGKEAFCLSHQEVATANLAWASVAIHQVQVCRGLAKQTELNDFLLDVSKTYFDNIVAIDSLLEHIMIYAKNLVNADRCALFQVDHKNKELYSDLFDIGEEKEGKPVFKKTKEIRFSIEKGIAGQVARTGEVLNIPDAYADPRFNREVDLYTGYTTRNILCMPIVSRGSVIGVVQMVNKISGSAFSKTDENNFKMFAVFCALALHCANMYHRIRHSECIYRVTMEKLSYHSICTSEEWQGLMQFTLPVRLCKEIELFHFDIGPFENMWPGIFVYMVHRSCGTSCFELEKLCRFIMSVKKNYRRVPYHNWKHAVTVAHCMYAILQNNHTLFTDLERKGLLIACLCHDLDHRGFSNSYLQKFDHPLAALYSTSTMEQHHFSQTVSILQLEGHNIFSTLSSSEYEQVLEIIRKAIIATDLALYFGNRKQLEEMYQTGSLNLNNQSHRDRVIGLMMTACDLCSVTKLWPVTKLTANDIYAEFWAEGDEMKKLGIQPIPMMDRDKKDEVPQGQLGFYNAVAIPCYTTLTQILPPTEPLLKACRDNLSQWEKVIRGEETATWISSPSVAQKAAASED

Row | SMILES | IC50 (hPDE2A; [1]) | Emax (hPDE2A) | hPDE3B Emax (hPDE3B) | hPDE3B pIC50 (hPDE3B) | IC50 (hPDE10A2) | Emax (hPDE10A2) | receptor occupancy at 10 mg/kg (PDE2A; po, read-out: PDE2 occupancy at 10 mg/kg, route PO (oral), 10 mg/kg, male Wistar rats, striatum, percentage occupancy) | ED50 (PDE2A; po) | melting point | IC50 (hPDE2A) | receptor occupancy at 10 mg/kg (PDE2A; [2]) | receptor occupancy at 10 mg/kg (PDE2A; [3]) | PDE2 occupancy at 10 mg/kg (PDE2A; route SC (subcutaneous), 10 mg/kg, male Wistar rats, striatum, percentage occupancy) | receptor occupancy at 10 mg/kg (PDE2A; [4]) | receptor occupancy at 10 mg/kg (PDE2A; [5])
1 | C[C@@H]1CCN(c2nccc3ccc(Cl)cc23)C[C@H]1c1cc(C(F)F)nc2ncnn12 [Compound 4] | 3.39 nM | 100% | 82 | 5.39 | 347 nM | 101% | 93% | 8.1 mg/kg | 135.42 °C | – | – | – | – | – | –
2 | C[C@@H]1CCN(c2nccc3[nH]ccc23)C[C@H]1c1cc(C(F)F)nc2ncnn12 [Compound 9] | – | 101% | 60 | 5.13 | 708 nM | 92% | – | – | – | 12.6 nM | 36% | – | – | – | –
3 | COc1cccc2c(N3CC[C@@H](C)[C@H](c4cc(C(F)F)nc5ncnn45)C3)nccc12.Cl [Compound 10] | – | 99% | 84 | 5.53 | 490 nM | 100% | – | 20 mg/kg | – | 12.9 nM | 53% | – | – | – | –
4 | C[C@@H]1CCN(c2ncnc3ccccc23)C[C@H]1c1cc(C(F)F)nc2ncnn12 [Compound 12] | – | 100% | 67 | 5.25 | 646 nM | 96% | – | – | – | 14.5 nM | – | 1% | – | – | –
5 | C[C@@H]1CCN(c2nccc3occc23)C[C@H]1c1cc(C(F)F)nc2ncnn12 [Compound 13] | – | 98% | 54 | 5.07 | 457 nM | 91% | – | – | 182.59 °C | 15.8 nM | – | – | 41 and 67 | – | –
6 | C[C@@H]1CCN(c2cc(I)ccn2)C[C@H]1c1cc(C(F)F)nc2ncnn12 [Compound 16] | – | 100% | 95 | 6.19 | 224 nM | 99% | – | – | – | 18.2 nM | – | – | – | -14% | –
7 | Cc1ccc(C#N)c(N2CC[C@@H](C)[C@H](c3cc(C(F)F)nc4ncnn34)C2)n1 [Compound 17] | – | 100% | 66 | 5.15 | 102 nM | 97% | – | – | – | 19.5 nM | – | – | – | – | -18%
8 | C[C@@H]1CCN(c2nccc3ccc(O)cc23)C[C@H]1c1cc(C(F)F)nc2ncnn12 [Compound 18] | 25.1 nM | 101% | 65 | 5.14 | 331 nM | 97% | – | – | – | – | -6% | – | – | – | –
9 | C[C@@H]1CCN(c2cc(C#N)ccn2)C[C@H]1c1cc(C(F)F)nc2ncnn12 [Compound 22] | – | 100% | 82 | 5.5 | 1150 nM | 90% | – | – | – | 67.6 nM | – | – | – | – | 0%
10 | C[C@@H]1CCN(c2cc(N3CCOCC3)ccn2)C[C@H]1c1cc(C(F)F)nc2ncnn12 [Compound 27] | – | 100% | 48 | 5.07 | 2630 nM | 80% | – | – | – | 107 nM | – | – | – | 0% | –
11 | C[C@H]1CCN(c2nccc3ccc(Br)cc23)C[C@@H]1c1cc(C(F)F)nc2ncnn12 [Compound 29] | – | 8% | 99 | 5.85 | 2510 nM | 84% | – | – | 134.49 °C | 2950 nM | – | – | – | – | –
12 | C[C@H]1CCN(c2nccc3occc23)C[C@@H]1c1cc(C(F)F)nc2ncnn12 [Compound 30] | – | 9% | 53 | 5.02 | > 10000 nM | 41% | – | – | 184.03 °C | 8510 nM | – | – | – | – | –
13 | C[C@@H]1CCN(c2ccccn2)C[C@H]1c1cc(C(F)F)nc2ncnn12.Cl [Compound 32] | – | 86% | 38 | <5 | 1660 nM | 87% | – | – | – | 170 nM | – | 18% | – | – | –
14 | C[C@@H]1CCN(c2ccc(C#N)cn2)C[C@H]1c1cc(C(F)F)nc2ncnn12 [Compound 35] | – | 99% | 31 | <5 | 1380 nM | 85% | – | – | – | 162 nM | – | 0% | – | – | –
15 | C[C@@H]1CCN(c2cc(C#N)c3cc(Cl)ccc3n2)C[C@H]1c1cc(C(F)F)nc2ncnn12 [Compound 37] | 129 nM | 102% | 70 | 5.17 | 363 nM | 96% | – | – | 235.11 °C | – | – | – | – | – | –
16 | Cc1cccc2ccnc(N3CC[C@@H](C)C(c4cc(C(F)F)nc5ncnn45)C3)c12 (stereo partly drawn) [Compound 41] | – | 99% | 65 | 5.14 | 4680 nM | 76% | – | – | – | 309 nM | – | – | – | -8% | –
17 | C[C@@H]1CCN(c2ccnc3ccccc23)C[C@H]1c1cc(C(F)F)nc2ncnn12 [Compound 42] | – | 99% | 70 | 5.27 | 1230 nM | 91% | – | – | – | 20.4 nM | – | -8% | – | – | –

Source: US11053248B2, “[1,2,4]triazolo[1,5-a]pyrimidine compounds as PDE2 inhibitors” (Janssen Pharmaceutica NV, priority 2016, dated 2021)
